Experiments:
Format in all cases: cell-based, rabbit
[1] = system: renal proximal tubular cells; test: Cell density (monolayer protein content) in DCVC-injured RPTC; conditions: for monolayer protein content in injured RPTC: day 1 or day 6 after DCVC, 50 μg/ml
Protocol: Rabbit renal proximal tubules were isolated using the iron oxide perfusion method and grown in 35-mm tissue culture dishes or 48-well cell culture clusters under improved conditions as previously described (35, 36). The cell culture medium was a 1:1 mixture of DMEM/Ham's F-12 (without D-glucose, phenol red, or sodium pyruvate) supplemented with 15 mM HEPES buffer, 2.5 mM L-glutamine, 1 μM pyridoxine HCl, 15 mM sodium bicarbonate, and 6 mM lactate. Hydrocortisone (50 nM), selenium (5 ng/ml), human transferrin (5 μg/ml), bovine insulin (10 nM), and L-ascorbic acid-2-phosphate (50 μM or 500 μM) were added to fresh culture medium immediately prior to daily media change. L-Ascorbic acid-2-phosphate (AscP) was used due to the fact that L-ascorbic acid is unstable in culture media. AscP is stable in culture media for ≧7 days at 37° C. and, after intracellular dephosphorylation, has the same effect on cultured cells as L-ascorbic acid (13).
(§1) Confluent monolayers of renal proximal tubular cells (day 6 after seeding) were exposed to 200 μM S-(1,2-dichlorovinyl)-L-cysteine (dissolved in water) for 1.75 hours followed by toxicant removal and addition of fresh culture media. This method produces approximately 50% cell death and loss 24 hours after the exposure. On days 1, 4, and 6 following S-(1,2-dichlorovinyl)-L-cysteine exposure, the ability of the remaining renal proximal tubular cells to regenerate and repair physiological function was monitored as described below. In some experiments, immediately after S-(1,2-dichlorovinyl)-L-cysteine exposure and after daily media change through day 6 after injury, collagen I (0, 5, 15, or 50 μg/ml), collagen IV (0, 5, 15, or 50 μg/ml), laminin (50 μg/ml), or cellular fibronectin (50 μg/ml) was added to the culture media of uninjured and S-(1,2-dichlorovinyl)-L-cysteine-injured renal proximal tubular cells grown in physiological concentrations of AscP. Exogenous collagens I and IV used in this study were triple helical and contained only α1 and α2 chains in conformations similar to those found in the renal basement membrane (3, 25). Laminin was a mixture of biologically active laminin chains found in most epithelial tissues (8, 50) and cellular fibronectin was composed of functional dimers (51).
Measurement of monolayer protein content over time was used to estimate cell density. On days 1, 4, and 6 after sublethal S-(1,2-dichlorovinyl)-L-cysteine injury, renal proximal tubular cell monolayers were washed with PBS and solubilized in Triton buffer (0.05% Triton X-100, 100 mM Tris-Base, 150 mM NaCl, pH 7.5). Samples were sonicated and protein concentrations determined using the method of Lowry (26) or the bicinchoninic acid microassay according to the manufacturer's instructions (Pierce, Rockford, Ill.).

[2] = system: renal proximal tubular cells; test: Basal oxygen consumption (QO2), a measure of mitochondrial function
Protocol: as §1
On days 1, 4, and 6 after sublethal S-(1,2-dichlorovinyl)L-cysteine injury, renal proximal tubular cells bathed in 37° C. culture medium were gently detached from culture dishes with a rubber policeman and transferred to a 37° C. oxygen consumption (QO2) chamber. Basal renal proximal tubular cells QO2 was measured polarographically using a Clark-type electrode as described previously (36).

[3] = system: Na^+/K^+-ATPase activity in renal proximal tubular cells; test: Na^+/K^+-ATPase activity (ouabain-sensitive ATPase); conditions: day 6 after DCVC injury; 50 μg/ml
Protocol: as §1
On days 1 and 6 after sublethal S-(1,2-dichlorovinyl)-L-cysteine injury, total ATPase activity was measured using a modification of a previously described procedure (44). Briefly, renal proximal tubular cells cultured in 48-well cell culture clusters were scraped and incubated in dissociation buffer (5 mM HEPES (pH 7.4), 25 mM imidazole, 1% BSA, 0.065% sodium dodecyl sulfate (SDS)) for 10 min. at room temperature and placed on ice. The dissociated renal proximal tubular cells were then diluted 5-fold with additional dissociation buffer minus SDS. Aliquots of dissociated renal proximal tubular cells were combined with fresh ATPase assay buffer (2.54 mM MgCl2, 100 mM NaCl, 10 mM KCl, 5 mM HEPES, 10 U/ml lactate dehydrogenase, 7 U/ml pyruvate kinase, 2.54 mM Na2ATP, 2.54 mM phospho(enol)pyruvate, and 0.5 mM β-NADH). ATPase activity was measured under linear conditions spectrophotometrically as the oxidation of β-NADH to NAD^+ at 37° C. in the absence or presence of ouabain (0.1 mM) at a wavelength of 340 nm. Na^+/K^+-ATPase activity was calculated as total ATPase activity minus ouabain-insensitive ATPase activity.
Confluent monolayers of renal proximal tubular cells (day 6 after seeding) were exposed to 200 μM S-(1,2-dichlorovinyl)-L-cysteine (dissolved in water) for 1.75 hours followed by toxicant removal and addition of fresh culture media. This method produces approximately 50% cell death and loss 24 hours after the exposure. In some experiments, exogenous collagen IV (50 μg/ml), collagen I (50 μg/ml), or function-stimulating antibodies to collagen-binding integrin subunits α2 or β1 (5 μg/ml) was added daily to the culture media of S-(1,2-dichlorovinyl)-L-cysteine-injured renal proximal tubular cells cultured in the absence of pharmacological concentrations of L-ascorbic acid-2-phosphate. Function-stimulating antibodies to collagen-binding integrin α1 are not commercially available at this time. On days 1 and 6 following S-(1,2-dichlorovinyl)-L-cysteine exposure, active Na^+ transport or Na^+/K^+-ATPase activity, and collagen-binding integrin expression and/or localization in the remaining sublethally injured renal proximal tubular cells was determined as described below.
Total ATPase activity was measured as described above. […]

[4] = day 1 after DCVC injury, in presence of exogenous protein
[5] = day 6 after DCVC injury, 5, 15, 50 μg/ml
[6] = uninjured RPTC, days 1 or 6, exogenous protein

Substance | decrease in monolayer cell density [1, 4] | monolayer protein content in injured RPTC [1] | cell density [1, 5] | monolayer cell density in untreated RPTC [1, 6] | decrease in basal QO2 [2, 4] | repair of basal QO2 [2, 5] | basal QO2 in untreated RPTC [2, 6] | Na^+/K^+-ATPase activity in injured RPTC [3]
collagen I: Rat tail collagen I; triple helical, containing only α1 and α2 chains | approximately 50% | no change | neither increased cell density nor repair of basal QO2 | no effect | approximately 50% | neither increased cell density nor repair of basal QO2 | no effect | remained inhibited
fibronectin | – | no change | – | – | – | – | – | remained inhibited
laminin | – | no change | – | – | – | – | – | remained inhibited

— US7183383B2, “Uses of collagen IV” (The University of Arkansas for Medical Sciences, priority 2002, dated 2007)
